“Also recorded” adds a separate entry of the source. Read-outs that look alike come from different tables or passages of the source.
How the values were obtained:
[1] = system: postmenopausal women; assay: Microvascular function by peripheral arterial tonometry (Endo-PAT2000) after intake of 90 mg ResArgin or trans-res; assay type: in vivo, human; settings: combined data
[2] = Plasma resveratrol concentrations after intake (HPLC), one hour study; assay type: in vivo, human; settings: median (interquartile range), n=30
Protocol: Participants were randomized by block design to consumed trans-res or ResArgin™ in random order. Randomization was performed by the study coordinator following a predetermined plan formulated via a web-based random number generator. […] The study included two separate investigations: a one hour study and a two hour study (FIG. 6). During each study visit, which took place after an overnight fast, a baseline measurement of PAT and a blood sample were collected, followed by consumption of the assigned treatment. During the one hour study, PAT measurements and blood samples were collected thirty and […] minutes after the capsules were consumed. During the two hour study, a PAT measurement and blood sample were taken two hours after the capsules were consumed.
Briefly, plasma was treated with acidified methanol [0.5% (v/v) of acetic acid in methanol; precooled to −20° C.] containing an appropriate recovery standard. The mixture was stored at −80 C for 12 hours to allow for cryo-assisted protein precipitation, and then centrifuged for 15 min at 16,500×g. The supernatant fraction was transferred and its volume reduced to less than 50 μL by removing the solvents under vacuum with a […] SpeedVac Concentrator (Thermo Electron Corporation, Milford, Mass.). […]

[3] = system: platelets; settings: 10 mg daily for three months; stable coronary artery disease patients; cited from earlier work
[4] = system: platelets; assay: Platelet function by whole blood/optical lumi-aggregometer after intake; assay type: in vivo, human
Protocol: Platelet reactivity during clinical screening was assessed by a PFA-100 (Siemens, Deerfield, Ill.), which measures platelet function by simulating arterial hemostasis under blood flow shear stress. During the intervention, platelet function was assessed by a whole blood/optical lumi-aggregometer (Chrono-log Model 700, Havertown, Pa.). Briefly, platelet aggregation was measured via electrical impedence (or electrical resistance), whereas lumi-aggregometry was used to examine aggregation together with adenosine triphosphate (hereafter, “ATP”) release, which is determined with firefly luciferin-luciferase system. […] One of the following agonists was used to stimulate platelets: collagen (1 μL and 5 μL), AA (10 μL) or ADP (10 μL). ATP release was measured only when platelets were activated with ADP. The aggregation was measured over a period of six minutes, following the addition of an agonist.

[5] = system: endothelial nitric oxide synthase (eNOS); settings: 1 μM; human umbilical vein endothelial cells; cited from earlier work
[6] = system: platelets; settings: in vitro; 10-1,000 μM; dose dependent; cited from earlier work
[7] = system: platelets; settings: 4 mg/kg/day; hypercholesterolemic rat model; cited from earlier work
[8] = platelets stimulated with 10 μL arachidonic acid, one hour after intake

| Plasma resveratrol concentration ([2]; 30 minutes after intake of 90 mg) | Plasma resveratrol concentration ([2]; 60 minutes after intake of 90 mg) | SMILES | Change in FRHI compared to baseline ([1]; one and two hours post-consumption) | Significant improvement in RHI compared to baseline ([1]; one hour after intake) | Platelet aggregation [3] | Slope, change from baseline ([4]; lumi-aggregometry with 10 μL ADP, one-hour post consumption) | Slope, change from baseline ([4]; platelets stimulated with 1 μL collagen, one hour after consumption) | Lag time, change from baseline ([4]; platelets stimulated with 1 μL collagen, one-hour post consumption) | Area under the curve (AUC) of aggregation, change from baseline [4, 8] | Maximum aggregation, change from baseline [4, 8] | Platelet function, change from baseline ([4]; stimulation with 5 μL collagen) | Expression of eNOS [5] | Platelet aggregation [6] | ADP-induced platelet aggregation [7] |
| --- | --- | --- | --- | --- | --- | --- | --- | --- | --- | --- | --- | --- | --- | --- |
| 2.04 (0.82, 2.54) | 2.65 (1.69, 3.44) | Oc1ccc(/C=C/c2cc(O)cc(O)c2)cc1 [trans-res, Trans-resveratrol] | No differences; also recorded: no changes | not observed | significantly reduced | significant decrease | not | significant increase | no changes | no changes | no significant changes | up-regulated | significantly reduced |  |
|  |  | Oc1ccc(C=Cc2cc(O)cc(O)c2)cc1 [Resveratrol, 3,5,4′-trihydroxystilbene] |  |  |  |  |  |  |  |  |  |  |  | inhibited |

Source: US10406129B2 (priority 2015, dated 2019)
